Assays:
IL-1RI = molecular target: T1, IL-1RI (Mus musculus, UniProt P13504); assay: Binding to IL-1RI: displacement of 125I-IL-1β on cells expressing IL-1RI selectively; details: displacement of 125I IL-1β equilibrium binding on 10^6 cells; murine thymoma clone EL4-6.1
T1 construct: Cells which express IL-1RI selectively (e.g. the murine thymoma clone EL4-6.1); endogenous in cells; host or cells: EL4-6.1 (murine thymoma clone)
T1 sequence (P13504 20-576): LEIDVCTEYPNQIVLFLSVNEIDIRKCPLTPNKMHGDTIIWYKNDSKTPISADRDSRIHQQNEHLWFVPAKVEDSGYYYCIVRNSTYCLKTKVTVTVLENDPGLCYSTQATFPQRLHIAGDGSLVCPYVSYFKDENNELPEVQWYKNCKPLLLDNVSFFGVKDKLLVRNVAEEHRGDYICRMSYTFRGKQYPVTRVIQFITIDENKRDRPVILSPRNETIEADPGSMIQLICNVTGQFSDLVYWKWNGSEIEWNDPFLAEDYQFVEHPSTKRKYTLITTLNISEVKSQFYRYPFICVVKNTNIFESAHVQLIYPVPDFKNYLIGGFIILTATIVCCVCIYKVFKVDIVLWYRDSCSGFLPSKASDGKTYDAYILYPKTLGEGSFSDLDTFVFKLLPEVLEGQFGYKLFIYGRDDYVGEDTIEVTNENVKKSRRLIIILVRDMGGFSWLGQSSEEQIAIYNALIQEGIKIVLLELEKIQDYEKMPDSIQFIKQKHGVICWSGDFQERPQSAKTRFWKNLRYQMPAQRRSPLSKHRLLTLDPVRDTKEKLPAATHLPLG
Method: (§1) The inhibitory activity of the improved IL-1ra mutants is measured in receptor binding assays, using IL-1ra as the reference standard. Cells which express IL-1RI selectively (e.g. the murine thymoma clone EL4-6.1) and cells which express IL-1RII selectively (e.g. Burkitt's human lymphoma RAJI clone 1H7) are chosen as target cells. The number of receptors per cell and the binding affinity (Kd) in both the lines are calculated from saturation curves obtained by incubating the cells (10^6 cells/test tube in a final volume of 0.1 ml of culture medium with NaN3) with increasing doses of IL-1β labelled with 125I in the presence or absence of a 500-fold molar excess of unlabelled IL-1β (for calculating non-specific binding, generally always less than 5-10%) for the optimum times and at the optimum temperatures for attaining equilibrium (generally 2 hours at room temperature) (Scapigliati et al. FEBS Lett. 243: 394, 1989). To calculate the inhibition activity, tests are conducted by incubating the cells with a concentration of radiolabelled IL-1β corresponding to approximately half of the Kd in the absence or in the presence of stepped doses of IL-1ra (reference standard) or of the improved mutant.
(§2) The improved inhibitory activity of the mutants is determined by calculating the shift of the inhibition curve towards the lower doses when compared with the curve of IL-1ra.

IL-1RII = molecular target: T2, IL-1RII (Homo sapiens, UniProt P27930); assay: Binding to IL-1RII: displacement of 125I-IL-1β on cells expressing IL-1RII selectively; details: displacement of 125I IL-1β equilibrium binding on 10^6 cells
T2 construct: cells which express IL-1RII selectively (e.g. Burkitt's human lymphoma RAJI clone 1H7); endogenous in cells; host or cells: RAJI clone 1H7 (Burkitt's human lymphoma)
T2 sequence (P27930 14-398): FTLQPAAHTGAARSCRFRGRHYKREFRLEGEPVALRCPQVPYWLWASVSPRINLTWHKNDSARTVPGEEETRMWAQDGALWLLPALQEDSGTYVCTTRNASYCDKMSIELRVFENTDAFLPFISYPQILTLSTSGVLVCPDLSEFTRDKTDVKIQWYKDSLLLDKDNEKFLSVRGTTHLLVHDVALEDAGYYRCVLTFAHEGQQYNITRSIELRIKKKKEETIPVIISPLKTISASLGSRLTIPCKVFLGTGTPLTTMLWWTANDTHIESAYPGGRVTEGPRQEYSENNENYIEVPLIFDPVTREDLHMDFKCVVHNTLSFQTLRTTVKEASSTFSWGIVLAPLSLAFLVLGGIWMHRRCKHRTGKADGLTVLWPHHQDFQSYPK
Method: as §1, §2

murine thymocytes = assay: Inhibition of IL-1β-induced proliferation of murine thymocytes; assay type: cell-based, mouse; details: for Thymocyte proliferation to IL-1β 30 pg/ml, ID50: murine thymocytes; for Thymocyte proliferation to IL-1β 300 pg/ml, ID50: C3H/HeJ thymocytes with PHA, 72 hours
Method: 1. Proliferation of murine thymocytes: normal thymocytes are obtained by breaking up thymus glands of C3H/HeJ mice (resistant to bacterial endotoxin) aged 4-8 weeks. The thymocytes (5×10^5 cells/well of Cluster^96 plates) are incubated for 72 hours in RPMI-1640 culture medium with addition of antibiotics, L-glutamine, 2-ME, HEPES and 5% foetal calf serum at 37° C. in air with 5% CO2. […] To determine the proliferation of the thymocytes induced by IL-1, at the end of 72 hours of incubation […] of culture medium containing […] of tritiated thymidine are added to each well. After another 18 hours, the cells from each well are harvested onto small glass-fibre disks and the radioactivity incorporated (proportional to the proliferation of the cells) is measured with a β-counter. For determination of the inhibitory capacity of the improved mutants of IL-1ra , the proliferation of the thymocytes is measured in response to the minimum dose of IL-1 that induces optimum proliferation (generally around 0.3 ng/ml) in the absence or in the presence of stepped doses of IL-1ra (control standard) or of the improved mutants. The improved inhibitory activity of the mutants is determined by calculating the shift of the inhibition curve towards the lower doses when compared with the curve of IL-1ra .

human osteosarcoma MG-63 = assay: Inhibition of IL-1β-induced IL-6 production in MG-63 cells; assay type: cell-based; details: MG-63 cells stimulated with IL-1 around 0.3 ng/ml, 48 hours
Method: The quantity of IL-6 in the culture supernatants is measured by a commercial ELISA assay or determined in the biological assay of proliferation of 7TD1 cells.

IL-1β [1] = assay: Inhibition of IL-1β-induced hypoglycaemia in vivo; details: hypoglycaemia induced in the mouse by 5.0 μg/kg IL-1β, intraperitoneal, serum glucose after two hours
Method: 1. Induction of hypoglycaemia: C3H/HeJ mice or mice of some other strain (3-5 mice/test group) receive stepped doses of IL-1β by intraperitoneal administration. After two hours the animals are killed and the blood is collected for preparation of the serum. The serum glucose content is determined after reaction with glucose oxidase in a commercial calorimetric assay.

IL-1β [2] = assay: Inhibition of IL-1β-induced neutrophilia in vivo; details: neutrophilia induced in the mouse by 150 ng/kg IL-1β; antagonist intraperitoneally at -15 min, 0, +15 min; read four hours after treatment
Method: 2. Induction of neutrophilia: C3H/HeJ mice or mice of some other strain (3 mice/test group) receive stepped doses of IL-1β with a single intraperitoneal administration. The increase of circulating neutrophils induced by IL-1 is evaluated by cytofluorimetry four hours after the treatment.

[3] = Burkitt's human lymphoma RAJI clone 1H7

Substance	Binding to IL-1RI, ID50 (IL-1RI) [nM]	Binding to IL-1RII, ID50 (IL-1RII; [3]) [nM]	Thymocyte proliferation to IL-1β 30 pg/ml, ID50 (murine thymocytes) [ng/mL]	Thymocyte proliferation to IL-1β 300 pg/ml, ID50 (murine thymocytes) [ng/mL]	IL-6 production, ID50 (human osteosarcoma MG-63) [ng/mL]	Hypoglycaemia, ID50 (IL-1β [1]) [mg/kg]	Neutrophilia, ID100 (IL-1β [2]) [mg/kg]	Binding to IL-1RII, ID50 (IL-1RII; RAJI clone 1H7, unit as printed in this cell) [nM]
IL-1ra: wild type IL-1 receptor antagonist, a mature protein of 152 amino acids, used as reference standard [reference compound]	0.34	19.60	0.813	4.10	3.60	0.968	0.225	
MILRA-3: IL-1ra double mutant N91/T109→R/A	0.22	70.70	0.285			0.076		
MILRA-1: IL-1ra mutant N91→R (arginine in position 91 of the mature protein)	0.17	13.20		1.78	0.62	0.128	< 0.0225	
MILRA-2: IL-1ra mutant T109→A (alanine in position 109 of the mature protein)	0.19			1.75	1.12			1.8
